Experimental data from patent US20230064990A1, “DOSING REGIMENS AND METHODS FOR TREATING CANCER” (Panbela Therapeutics, Inc., priority 2020, published 2023).

Assays:
six human PDA cell lines = assay: Cell proliferation in six human PDA cell lines; type: cell-based
Method: AsPC-1, BxPC-3, Capan-1, HPAF-II, MIA PaCa-2 and PANC-1 cells were seeded in 96-well plates and allowed to adhere overnight. After 24 h fresh media was added containing 0.5-10 μM concentrations of (S,S)-(HO)2DEHSPM alone or +0.5 μM GEM, +5 nM NAB, or + both, or containing GEM, NAB or GEM+NAB alone. Cell proliferation was measured in triplicate 24, 48, 72 and 96 h post-treatment and IC50 values were calculated.

[1] = Phase 1 monotherapy dose escalation study, pharmacokinetics; type: in vivo, human; details: 0.05-0.8 mg/kg subcutaneous; Days 1 and 18 of cycle 1
[2] = Phase 1a/1b Cohort 4, shortened daily/periodic dosing regimen, liver toxicity; type: in vivo, human; details: Cohort 4 regimen vs reference dosing regimen, particularly Cohort 3
Method: As part of the same study described in Example 4, one cohort of patients (Cohort 4) was administered a combination shortened daily dosing regimen/periodic dosing regimen and liver toxicities were compared to the reference dosing regimen described in Example 4.
Cohort 4 was administered 0.4 mg/kg/day of (S,S)-(HO)2DEHSPM for 5 consecutive days (for a total of 5 doses/cycle) beginning on day 1 (i.e. days 1-5) of each of Cycles 1 and 2. Thereafter Cohort 4 was administered 0.4 mg/kg/day of (S,S)-(HO)2DEHSPM on Days 1, 8 and 15 beginning on day 1 of Cycle 3 (for a total of 3 doses per cycle) and continuing for each cycle thereafter. Cohort 4 patients were treated for 3 to 6 or more total cycles depending on the individual patient's tolerance of treatment.

[3] = Phase 1 monotherapy dose escalation study, safety and tolerability
Method: Safety and tolerability were evaluated by clinical and laboratory assessments. PK was evaluated on Days 1 and 18 of cycle 1. Efficacy was assessed by RECIST criteria and overall survival.

[4] = system: human L3.6pl pancreatic cancer cells; assay: Orthotopic implantation of L3.6pl pancreatic cancer cells into nude mice; details: for Median survival: control group 21 days
Method: These studies examined the anti-neoplastic effects of subcutaneous administration of (S,S)-(HO)2DEHSPM following orthotopic implantation of human L3.6pl pancreatic cancer cells into the pancreas of nude mice.
L3.6pl cells were injected into the pancreas of nude mice; treatment was initiated by group (n=10/group planned) 7-10 days later following establishment of tumors:
Study 1: saline (control), (S,S)-(HO)2DEHSPM (25 mg/kg), (S,S)-(HO)2DEHSPM (50 mg/kg), and (S,S)-(HO)2DEHSPM (100 mg/kg) daily (QD) for 4 to 6 weeks (wks).
Study 2: saline (control), (S,S)-(HO)2DEHSPM (25 mg/kg QD), (S,S)-(HO)2DEHSPM (25 mg/kg 3×/wk), (S,S)-(HO)2DEHSPM (15 mg/kg 3×/wk), and (S,S)-(HO)2DEHSPM (5 mg/kg 3×/wk) for 4 to 6 wks.
Study 3: saline (control), gemcitabine (GEM) (100 mg/kg 2×/wk, intraperitoneally), (S,S)-(HO)2DEHSPM (25 mg/kg 3×/wk), and (S,S)-(HO)2DEHSPM+GEM for 4 to 6 wks.

[5] = Study 3, compared with controls, GEM 100 mg/kg 2×/wk ip, (S,S)-(HO)2DEHSPM 25 mg/kg 3×/wk

In the case of `CCNCCC(O)CNCCCCNCC(O)CCNCC` [(S,S)-(HO)2DEHSPM, (6S,15S)-3,8,13,18-teraazaicosane-6,15-diol], the anti-proliferative effect (six human PDA cell lines; 0.5-10 μM, maximal inhibition most often with 10 μM) is reported as “anti-proliferative effect in all cell lines”, the “inhibition by (S,S)-(HO)2DEHSPM alone compared with GEM+NAB” value (six human PDA cell lines; ASPC-1, BxPC-3 and Capan-1 cells, p<0.005) is reported as “greater inhibition than GEM+NAB” and the “Plasma Cmax and AUC0-t versus dose” value [1] is reported as “increased linearly with dose”. The “severe liver toxicities compared to cohorts of Example 4” value [2] was “unexpectedly reduced or eliminated”, the “drug-related bone marrow suppression or peripheral neuropathy” value ([3]; any dose) was “No drug-related bone marrow suppression or peripheral neuropathy was seen at any dose” and the “focal pancreatitis at the site of the tumor” value ([3]; cohort 4 (0.4 mg/kg), at 2.3 months) was “one patient in cohort 4 developed focal pancreatitis”. For the same compound, the DLTs ([3]; cohort 5 (0.8 mg/kg), N=10) was “Three patients in cohort 5 developed serious adverse events considered dose limiting toxicities”, the DLTs ([3]; cohorts 1-4 (0.05-0.4 mg/kg)) was “No DLTs occurred” and the “drug-related serious adverse events (SAEs) or dose limiting toxicities (DLTs)” value ([3]; up to 0.4 mg/kg/day Monday through Friday×3 weeks (TCD~6 mg/kg per 8 week cycle)) was “No drug-related serious adverse events (SAEs) or dose limiting toxicities (DLTs) were observed”. For the same compound, the “reduction in pancreas weight” value ([4]; Study 1, 25 mg/kg QD subcutaneous, 4 to 6 wks, tumor bearing mice) was 82.9%, the toxicity / deaths ([4]; Study 1, 50 and 100 mg/kg QD) was “earlier deaths and proved to be toxic” and the “decreases in pancreas weight and tumor volume” value ([4]; Study 2, 5 mg/kg 3×/wk) was “no decreases were noted”. The “decrease in pancreas weight” value ([4]; Study 2, 15 mg/kg 3×/wk) was 20.1%, the “decrease in tumor volume” value ([4]; Study 2, 15 mg/kg 3×/wk) was 52.6% and the “reduction in pancreas weight” value ([4]; Study 2, 25 mg/kg 3×/wk) was 47.8%. The “reduction in tumor volume” value ([4]; Study 2, 25 mg/kg 3×/wk) was 66.6%, the Median survival ([4]; Study 2, 25 mg/kg 3×/wk) was 42 days and the “reduction in pancreas weight” value ([4]; Study 2, 25 mg/kg QD) was 72.7%. The “reduction in tumor volume” value ([4]; Study 2, 25 mg/kg QD) was 81.4%, the Median survival ([4]; Study 2, 25 mg/kg QD) was 32 days and the “decreases in body weight” value ([4]; Study 3, GEM 100 mg/kg 2×/wk ip, (S,S)-(HO)2DEHSPM 25 mg/kg 3×/wk, 4 to 6 wks) was 35.6%. For the same compound, the “decreases in pancreas weight” value [4, 5] was 58.8% and the “decreases in tumor volume” value [4, 5] was 58.4%.
